{"source": "patent EP1338283A1", "about": "“Use of neoruscine to treat alopecia” (Pierre Fabre Dermo-Cosmetique, priority 2002, dated 2003)", "key": {"VEGF": {"system": "VEGF", "experiment": "VEGF assay (ELISA) in supernatants of dermal papilla cell cultures", "assay_type": "cell-based", "conditions": "néoruscine 50 µg/ml, 24 h treatment, dermal papilla cells, ELISA on supernatants", "experimental": "La suspension de cellules de la papille dermique (10^6 cellules/2 ml) dans le DMEM 10 % SVF est distribuée dans les plaques 6 puits (10^6 cellules/puits) et incubée pendant 18 heures à 37°C dans une atmosphère à 5 % CO2. Les cellules de la papille folliculaire sont alors rincées avec du PBS pour éliminer les cellules non adhérentes puis exposées pendant 24 heures aux produits à tester inclus dans du DMEM sans SVF (qui pourrait interférer dans le dosage). Pour chaque produit testé, 3 puits sont réalisés.\nL'extrait de Ruscus et la néoruscine purifiée sont testés en culture.\nAprès 24 heures de traitement, les surnageants sont récupérés, centrifugés puis conservés à -80°C avant leur utilisation ultérieure pour le dosage du VEGF.\nLa production du VEGF dans les surnageants est mesurée par Kit Elisa (R&D Biosystems). Les résultats sont exprimés en picogrammes de VEGF par 10^6 cellules et en pourcentages d'activité. Dans ce test la néoruscine à 50 µg/ml stimule la production du VEGF de 329 %."}, "follicule pileux humain": {"system": "follicule pileux humain", "experiment": "Growth of human hair follicle ex vivo", "assay_type": "cell-based", "conditions": "5 days of treatment, activity versus controls", "experimental": "Les follicules pileux sont issus de scalp humain provenant du service de chirurgie plastique des hôpitaux ou des cliniques. La peau est rasée puis lavée dans 10 bains successifs de 10 min de PBS supplémentés d'antibiotiques (pénicilline 100 unités/ml et streptomycine 100 µg/ml). Les follicules en phase anagène reconnaissables car très vascularisés sont ensuite isolés de la peau sous la loupe binoculaire et débarrassés de la graisse. Ils sont ensuite incubés à 37°C dans des boîtes de culture dans du milieu de culture DMEM contenant le produit à tester. Le milieu de culture des follicules ne contient pas de sérum. Ce milieu est composé de 10µg/ml d'insuline, de 10 µg/ml de transferrine, de 10 µg/ml d'hydrocortisone, de 1% d'un mélange de pénicilline (100 uités /ml)-streptomycine (100µg/ml), de 2,5 µg/ml de fungizone et de la L-glutamine à 1mM.\nLes follicules sont mis en présence de différentes concentrations de néoruscine (50, 100 et 300 µg/ml) (10 follicules par traitement). Les témoins sont cultivés dans du milieu sans produit.\nLa croissance de la tige des follicules pileux est mesurée à l'aide de papier millimétré sous loupe binoculaire au jour 0 et tous les jours pendant 5 jours. Une caméra numérique permet de saisir les images de follicules pileux et de calculer avec précision leur taux de croissance. Le pourcentage de croissance = (mesure Tx - mesure T0)/ mesure T0). [formula] […]"}, "gène du VEGF": {"system": "gène du VEGF", "experiment": "VEGF gene expression (RT-PCR) in dermal papilla cells", "assay_type": "cell-based, humaine", "conditions": "néoruscine 50 µg/ml, 3 h incubation", "experimental": "La suspension de cellules de la papille folliculaire (10^6 cellules par boîte de 25 cm^2) dans le milieu DMEM est distribuée dans les boîtes de culture puis incubés pendant 12 heures à 37°C dans une atmosphère à 5 % de CO2. Les CPD sont ensuite rincées avec du PBS pour éliminer les cellules non adhérentes.\nPour chaque lot, les cellules sont pré-incubées pendant 3 heures avec les produits à tester préparés dans du DMEM. Les cellules sont ensuite rincées deux fois au PBS.\nAprès rinçage au PBS, les boîtes de culture sont déposées sur de la glace. Les cellules sont traitées avec la solution d'extraction d'ARN, RNAβTM (1 ml/boîte).\nLes lysats cellulaires sont ensuite récupérés, centrifugés après avoir ajouté du chloroforme. Trois phases sont alors observables • inférieure contenant les débris cellulaires - interface contenant l'ADN • […] supérieure avec l'ARN\nLes surnageants sont prélevés, les ARN sont précipités avec de l'isopropanol. […]\nLa quantité d'ARN ainsi que la pureté sont déterminées par spectrophotométrie (Chomczynski P., Sacchi N. Anal. Biochem. 1987; 162: […]). […]\nUne caméra UV permet de saisir l'image du gel et la quantification du volume et de l'intensité des bandes correspondant à l'ADNc du VEGF se fait à l'aide d'un logiciel d'analyse d'image."}, "[1]": {"system": "gène cytochrome P450 aromatase", "experiment": "Cytochrome P450 aromatase gene expression (RT-PCR) in dermal papilla cells", "assay_type": "cell-based, humaine", "conditions": "néoruscine 5 µg/ml, 3 h exposure, human dermal papilla cells", "experimental": "Nous avons évalué, dans le cadre de cet exemple, l'activité de la néoruscine sur la transcription du gène VEGF par les cellules de la papille dermique humaine en culture.\nLes cellules de la papille dermique sont ensemencées à 10^6 cellules par boîte dans du DMEM à 10 % de SVF et 1 % de Pénicilline/Streptomycine pendant 24 heures à 37°C dans une atmosphère à 5 % CO2. Les cellules de la papille folliculaire sont alors rincées avec du PBS pour éliminer les cellules non-adhérentes puis exposées aux produits à tester dans du DMEM sans SVF (qui pourrait interférer dans le dosage) durant 3 heures.\nLes principes actifs ont été testés en culture à des concentrations non cytotoxiques. Une boîte de culture est réalisée pour chaque lot.\nAprès rinçage au PBS, les boîtes de culture sont déposées sur de la glace. Les cellules sont traitées avec la solution d'extraction d'ARN, RNA βTM (1 ml/boîte). […]\nLes surnageants sont prélevés, les ARN sont précipités avec de l'isopropanol. […] La quantité d'ARN ainsi que la pureté sont déterminées par spectrophotométrie.\nL'ARN total (1 µg) est rétro-transcrit en ADN complémentaire une heure à 48°C avec le kit Access RT-PCR system (Promega). […] Une caméra UV permet de saisir l'image du gel et la quantification du volume et de l'intensité des bandes correspondant à l'ADNc et du cytochrome P450 aromatase se fait à l'aide d'un logiciel d'analyse d'image. […]"}}}
{"substance": "néoruscine", "values": [{"measurement": "stimule la production du VEGF", "setting": "VEGF", "value": 329, "unit": "%"}, {"measurement": "croissance des follicules pileux humains, activité du traitement", "setting": "follicule pileux humain; néoruscine 100 µg/ml", "value": "77,08%"}, {"measurement": "croissance des follicules pileux humains, activité du traitement", "setting": "follicule pileux humain; néoruscine 300 µg/ml", "value": "118,09%"}, {"measurement": "stimulation de la transcription du gène du VEGF", "setting": "gène du VEGF", "value": "24,5%"}, {"measurement": "stimule la transcription du gène cytochrome P450 aromatase", "setting": "[1]", "value": 81, "unit": "%"}]}
